In patent US20150045301A1, “METHODS AND USES OF ANP (ATRIAL NATRIURETIC PEPTIDE), BNP (BRAIN NATRIURETIC PEPTIDE) AND CNP (C-TYPE NATRIURETIC PEPTIDE)-RELATED PEPTIDES AND DERIVATIVES THEREOF FOR TREATMENT OF RETINAL DISORDERS AND DISEASES” (KALOS Therapeutics, Inc., priority 2011, published 2015):
“And” between values parts separate entries of the source, which are not always exact repeats. Identical values can stand only once. “Also recorded” adds a separate entry of the source.

How the values were obtained:
[1] = tested on: Human Pancreatic Adenocarcinoma Cells (HPAC); assay: HPAC cell viability / anti-cell proliferative assay (Calbiochem Rapid Cell Proliferation Kit, OD 450 nm); format: cell-based; conditions: 48 hours; for Optical Densities in 96_Well Plate, Average: average of 5 wells; for Optical Densities in 96_Well Plate, single well: one of 5 replicate wells
Description: Human Pancreatic Adenocarcinoma Cells (HPAC) cells were obtained from ATCC and propagated in Dulbecco's modified Eagle's medium and Ham's F12 medium (DME-F12) (1:1) containing 2.5 mM glutamine, […], 5 ug/mL transferrin, 1 ng/mL EGF (epidermal growth factor), plus 5% FBS (fetal bovine serum). Cell cultures were incubated at 37° C., 5% CO2 in a 100% humidity atmosphere. The cells were routinely brought to confluence in T-flasks, rinsed with phosphate buffered saline(PBS), and treated with trypsin for 5 min at room temp. The trypsinized cells were rinsed from the plate with 10 mL medium and counted. Viability at subculturing was generally ≧95%.
Approximately 10,000 cells in 100 uL of medium were placed in each well of a 96-well plate and incubated over night. Peptides having the following sequences were used: Arg-15-Cys (RSSCAGAALSPLGAC); Pro-15-Val (PNEEAGAALSPLPEV); Ala-8-Leu (AGALSPL); C-ANP 4-23 ([…]) and, VDL ([…]). The peptides were dissolved in PBS and sterile filtered. The peptides were diluted into the cell culture medium to the following final concentrations: 1, 0.3, 0.1, 0.03, and 0.01 uM. Each peptide was tested in 5 replicate wells. The cultures were incubated for an additional 48 hours at 37° C.
The viability of the cells was determined using a Calbiochem Rapid Cell Proliferation Kit (catalog number QIA127). Ten uL of Calbiochem color reagent was added to each well and incubated for an additional 1.5 hours at 37° C. Optical densities were read at 450 nm using a Molecular Devices ThermoMax microplate reader. The plate template is shown in Table I (unlabeled wells contained cells but no peptide and were used as blanks). Results are presented in Table I, and are graphically illustrated in FIGS. 1 and 2.

cancer cells [2] = assay: Anti-cancer activity of peptides with the conserved motif (cell proliferative assay); format: cell-based; conditions: statement in the description
From the text: This example describes activity of peptides having a conserved motif and conserved amino acids predicted to be functional in the motif. (Table III). This example also describes additional exemplary peptide sequences having a conserved motif predicted to have activity (Table IV). Notations “Res 1, Res 2” etc., herein refer by single letter abbreviation the amino acid in the exemplary peptide 8-mer. “Activity” can be determined by a cell proliferative assay, such as an assay described herein or known to one of skill in the art. Of course, peptides exemplified in Table IV can include the conserved motif peptide as part of a larger protein. The SEQ ID NO is the same as the peptide number. Each of these exemplary peptides can be analyzed in vitro, ex vivo, and in vivo for anti-cell proliferative activity using an assay, such as a cell based in vitro assay described in Examples 1 or 4.

cancer cells [3] = conditions: comparison between natriuretic peptides, Vesely 2008; cited from earlier work
NPRC = molecular target: T1, NPRC (Homo sapiens, UniProt P17342); conditions: comparison between natriuretic peptides, Vesely 2008; cited from earlier work
T1 sequence (P17342 27-541): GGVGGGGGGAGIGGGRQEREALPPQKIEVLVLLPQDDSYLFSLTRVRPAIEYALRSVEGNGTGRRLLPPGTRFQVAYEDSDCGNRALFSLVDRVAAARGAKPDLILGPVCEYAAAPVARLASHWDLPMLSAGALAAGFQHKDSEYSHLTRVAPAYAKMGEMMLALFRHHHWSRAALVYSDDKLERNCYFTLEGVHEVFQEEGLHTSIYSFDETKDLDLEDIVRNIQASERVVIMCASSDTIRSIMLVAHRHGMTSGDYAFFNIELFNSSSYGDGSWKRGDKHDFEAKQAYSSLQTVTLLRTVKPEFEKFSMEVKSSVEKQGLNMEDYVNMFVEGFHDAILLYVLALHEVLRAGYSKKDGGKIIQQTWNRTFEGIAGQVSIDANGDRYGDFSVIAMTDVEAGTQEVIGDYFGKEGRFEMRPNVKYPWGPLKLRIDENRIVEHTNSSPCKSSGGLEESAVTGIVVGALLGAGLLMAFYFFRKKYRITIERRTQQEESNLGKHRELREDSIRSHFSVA

[4] = tested on: Human RPE cells (ARPE-19); assay: Transepithelial electrical resistance (TEER) of RPE cell layer treated with VEGF; format: cell-based; conditions: ARPE-19 cell layer, VEGF 10 ng/ml

PNEEAGAALSPLPEV [Pro-15-Val]
Optical Densities in 96_Well Plate, Average ([1]; peptide 0.01 μM): 0.916
Optical Densities in 96_Well Plate, single well ([1]; peptide 0.01 μM): 0.907 and 0.905 and 0.633 and 1.209 and 0.928
Optical Densities in 96_Well Plate, Average ([1]; peptide 0.03 μM): 0.894
Optical Densities in 96_Well Plate, single well ([1]; peptide 0.03 μM): 0.892 and 0.765 and 0.693 and 1.151 and 0.970
Optical Densities in 96_Well Plate, Average ([1]; peptide 0.1 μM): 0.918
Optical Densities in 96_Well Plate, single well ([1]; peptide 0.1 μM): 0.680 and 0.895 and 0.893 and 1.156 and 0.964
Optical Densities in 96_Well Plate, Average ([1]; peptide 0.3 μM): 0.916
Optical Densities in 96_Well Plate, single well ([1]; peptide 0.3 μM): 0.875 and 0.817 and 0.855 and 1.024 and 1.010
Optical Densities in 96_Well Plate, Average ([1]; peptide 1.0 μM): 0.948
Optical Densities in 96_Well Plate, single well ([1]; peptide 1.0 μM): 0.856 and 0.752 and 0.802 and 1.083 and 1.248

RSSCFGGRIDRIGAC [C-ANP 4-23, the ANP analog, reference compound]
Activity of peptides sharing the conserved motif (cancer cells [2]): have activity
Optical Densities in 96_Well Plate, Average ([1]; peptide 0.01 μM): 0.938
Optical Densities in 96_Well Plate, single well ([1]; peptide 0.01 μM): 0.877 and 0.971 and 0.953 and 0.932 and 0.958
Optical Densities in 96_Well Plate, Average ([1]; peptide 0.03 μM): 0.932
Optical Densities in 96_Well Plate, single well ([1]; peptide 0.03 μM): 0.905 and 0.882 and 0.981 and 0.948 and 0.943
Optical Densities in 96_Well Plate, Average ([1]; peptide 0.1 μM): 0.942
Optical Densities in 96_Well Plate, single well ([1]; peptide 0.1 μM): 0.758 and 1.027 and 0.983 and 0.960 and 0.982
Optical Densities in 96_Well Plate, Average ([1]; peptide 0.3 μM): 0.942
Optical Densities in 96_Well Plate, single well ([1]; peptide 0.3 μM): 0.840 and 0.928 and 1.035 and 0.975 and 0.932
Optical Densities in 96_Well Plate, Average ([1]; peptide 1.0 μM): 0.925
Optical Densities in 96_Well Plate, single well ([1]; peptide 1.0 μM): 0.865 and 0.925 and 0.900 and 0.955 and 0.981

AGALSPL [Ala-8-Leu, 8-mer conserved motif peptide]
Optical Densities in 96_Well Plate, Average ([1]; peptide 0.01 μM): 0.937
Optical Densities in 96_Well Plate, single well ([1]; peptide 0.01 μM): 0.744 and 0.878 and 1.000 and 0.892 and 1.169
Optical Densities in 96_Well Plate, Average ([1]; peptide 0.03 μM): 0.976
Optical Densities in 96_Well Plate, single well ([1]; peptide 0.03 μM): 0.892 and 0.937 and 0.989 and 0.921 and 1.139
Optical Densities in 96_Well Plate, Average ([1]; peptide 0.1 μM): 0.991
Optical Densities in 96_Well Plate, single well ([1]; peptide 0.1 μM): 0.832 and 1.006 and 1.031 and 0.910 and 1.174
Optical Densities in 96_Well Plate, Average ([1]; peptide 0.3 μM): 1.002
Optical Densities in 96_Well Plate, single well ([1]; peptide 0.3 μM): 0.784 and 0.802 and 0.998 and 1.357 and 1.070
Optical Densities in 96_Well Plate, Average ([1]; peptide 1.0 μM): 0.985
Optical Densities in 96_Well Plate, single well ([1]; peptide 1.0 μM): 0.732 and 1.216 and 0.954 and 0.834 and 1.189

LANP: ANP-related peptide; motif in Table III FKNLLDHL (NPMYNAVSNADLMDFKNLLDHLEEKMPLED; Long-acting natriuretic peptide; UniProt P01160 26-55, looked up)
Activity of peptides sharing the conserved motif (cancer cells [2]): have activity

CNP: C-type natriuretic peptide; motif in Table III FGLKLDRI
Relative potency of NPs (cancer cells [3]): greater potency of CNP than BNP
Activity of peptides sharing the conserved motif (cancer cells [2]): have activity; also recorded: less active than ANP, LANP, KP or VDL
Relative binding affinity at NPRC (NPRC): higher binding affinity than BNP specifically at NPRC

VEGF
Effect on transepithelial electrical resistance (TEER) [4]: lowered resistance

BNP: brain natriuretic peptide; motif in Table III FGKRMDRI
Activity of peptides sharing the conserved motif (cancer cells [2]): have activity

RSSCAGAALSPLGAC [Arg-15-Cys]
Optical Densities in 96_Well Plate, Average ([1]; peptide 0.01 μM): 0.934
Optical Densities in 96_Well Plate, single well ([1]; peptide 0.01 μM): 0.974 and 0.920 and 0.863 and 0.840 and 1.075
Optical Densities in 96_Well Plate, Average ([1]; peptide 0.03 μM): 0.982
Optical Densities in 96_Well Plate, single well ([1]; peptide 0.03 μM): 1.093 and 0.894 and 0.789 and 0.955 and 1.178
Optical Densities in 96_Well Plate, Average ([1]; peptide 0.1 μM): 0.950
Optical Densities in 96_Well Plate, single well ([1]; peptide 0.1 μM): 1.016 and 0.917 and 0.801 and 0.990 and 1.025
Optical Densities in 96_Well Plate, Average ([1]; peptide 0.3 μM): 0.897
Optical Densities in 96_Well Plate, single well ([1]; peptide 0.3 μM): 0.988 and 0.957 and 0.668 and 0.913 and 0.959
Optical Densities in 96_Well Plate, Average ([1]; peptide 1.0 μM): 0.962
Optical Densities in 96_Well Plate, single well ([1]; peptide 1.0 μM): 1.155 and 1.005 and 0.787 and 0.944 and 0.919

KP: ANP-related peptide; motif in Table III LKSKLRAL (SSDRSALLKSKLRALLTAPR; Kaliuretic peptide; UniProt P01160 104-123, looked up)
Activity of peptides sharing the conserved motif (cancer cells [2]): have activity

EVVPPQVLSEPNEEAGAALSPLPEVPPWTGEVSPAQR [KT-220 (VDL), vessel dilator VDL]
Activity of peptides sharing the conserved motif (cancer cells [2]): have activity
